Measured values as given in patent publication US20060009433A1, “Neuroprotective spirostenol pharmaceutical compositions” (priority 2003, published 2006).

Key:
[1] = CPBBA with NT2 cell protein; format: binding, human; details: 3 hours at 37° C.; competition with unlabeled compound
Procedure: After incubation, samples were separated by 1.0% agarose (Type I-B) gel electrophoresis and transferred to a nitrocellulose membrane (Schleicher & SchueII, Keene, N.H., USA) in 10×saline-sodium citrate (SSC) buffer. The membrane was exposed to a tritium-sensitive screen and analyzed by phosphoimaging using the Cyclone Storage Phosphor System (Packard BioScience, Meridien, Conn., USA). Image-densitometric analyses were performed using the OptiQuant software (Packard). […] Low molecular weight unincorporated 22R-hydroxycholesterol is separated and eliminated during electrophoresis.

Aβ17-40 = target: T1, Aβ17-40 (Homo sapiens, UniProt P05067); assay: CPBBA, Aβ17-40; format: binding
T1 construct: purchased American Peptide Co. (Sunnyvale, Calif.)
T1 sequence (P05067 688-711 limits assumed): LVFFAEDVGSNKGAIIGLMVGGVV
Procedure: (§1) At the end of the incubation time, samples were separated by 1.5% agarose (Type I-B) gel electrophoresis and transferred to nitrocellulose membrane (Schleicher & Schuell, Keene, N.H.) in 10×SSC buffer. The membrane was exposed to tritium-sensitive screen and analyzed by phosphoimaging using the Cyclone Storage phosphor system (Packard BioScience, Meridien, Conn.). Image-densitometric analysis was performed using the OptiQuant software (Packard). […] Low molecular weight unincorporated 22i-hydroxycholesterol is separated and eliminated during electrophoresis.

[2] = system: PC12 cells, MDA-MB-231 cells or the human glioma cell line U87; assay: Differentiation in other cell lines; format: cell-based; details: data not shown
PC12 cells = assay: Membrane potential (CytoLite luminescence) in Aβ-treated PC12 cells; format: cell-based, rat
Procedure: PC12 cells (rat pheochromocytoma neurons) from ATCC (Manassas, Va.) were cultured at 37° C. and 5% CO2 in RPMI 1640 medium devoid of glutamine and supplemented with 10% fetal bovine serum and 5% horse serum. Yao Z, Drieu K and Papadopoulos V., The Gingko biloba extract EGb 761 rescues PC12 neuronal cells from β-amyloid-induced cell death by inhibiting the formation of (3-amyloid-derived diffusible neurotoxic ligands, Brain Res, 889, 181-190 (2001). Cells were seeded in 96-well plates (8×10^4 cells/well). After an overnight period of incubation, increasing concentrations of aggregated Aβ (0.1, 1 and 10 μM) were added to the cells in the presence or absence of the indicated concentrations of the SP compounds to be tested. After 72-hours incubation time various parameters, markers of cell viability, were determined. Mouse MA-10 tumor Leydig cells were maintained at 37° C. in DMEM/Ham's F12 (Biofluids, Rockville, Md.) medium supplemented with 5% heat-inactivated fetal calf serum and 2.5% horse serum in 5% CO2. Cells were plated on 96-well plates at the density of 2.5×10^4 cells/well for overnight. The cells were stimulated with the indicated concentrations of the various SP compounds in 0.2 ml/well serum-free medium for 2 hours. The culture medium was collected and tested for progesterone production by radioimmunoassay.
Cells viability was also assessed using the luminescence-based kit CytoLite™ (Packard BioScience Co.) according to the recommendations of the manufacturer. Briefly, cells were cultured and treated in 96-well plates and after 72-hours incubation time, 25 μl of Activator solution was added to the cells followed by 150 μl of Amplifier solution. Luminescence was measured on a TopCount NXT™ counter (Packard BioSciences Co.) following a 5 minute precount delay.

Aβ1-42 = Aβ1-42 (Homo sapiens, UniProt P05067); assay: Cholesterol-protein binding blot assay (CPBBA), Aβ1-42; details: for inhibition of binding of radiolabeled 22R-hydroxycholesterol to Aβ1-42: 50 μM Aβ1-42
Sequence of Aβ1-42 (P05067 672-713): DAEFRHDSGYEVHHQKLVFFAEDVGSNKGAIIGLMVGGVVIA
Procedure: as §1
The membrane with the 22R-hydroxycholesterol-Aβ peptide complexes was then used to examine Aβ levels. Membranes were blocked by incubating the nitrocellulose in 5% milk and treated for immunodetection of Aβ using ECL reagents (Amersham-Pharmacia, Piscataway, N.J.). Li et al., Proc. Natl. Acad. Sci. USA, 98, 1267-1272 (2001). Anti-Aβ antibody and secondary antibodies were used at 0.2 μg/ml and 1:5000 dilution, respectively.

rat PC12 cells = assay: Trypan blue dye exclusion assay, PC12 cells (Example I); format: cell-based; details: 100 μM steroid, 72 hours
Procedure: Rat PC12 cells were cultured as previously described. Yao et al., Brain Res. 889, 181-190 (2001). Human NT2 precursor (Ntera2/D1 teratocarcinoma) cells were obtained from Stratagene (La Jolla, Calif.) and cultured following the instructions of the supplier. Differentiated human NT2 neurons (NT2N) were obtained after treatment of the NT2 precursor cells with retinoic acid. Andrews, Dev. […] Aβ was dissolved in media and used either in the aggregated (left overnight at 4° C.) or soluble (containing oligomers such as dimers and tetramers) forms examined by electrophoresis as previously described. Yao et al., Brain Res. (2001). […] Id. Cell viability was measured using the trypan blue exclusion method as previously described. Id. In brief, for these studies, cells were treated for 72 hours with steroids in the presence or absence of increasing concentrations of Aβ. At the end of the incubation, the cells were washed three times with PBS and incubated for 15 minutes with 0.1% trypan blue stain solution at room temperature. After washing three times with PBS, 0.1 N NaOH was added to the cells and trypan blue staining was quantified using the Victor quantitative detection spectrophotometer (EGG-Wallac, Gaithersburg, Md.) at 450 nm. Cell protein levels were determined in the same samples by the method of Bradford (Bradford, Anal. Biochem., 72, 248-254 (1976)), where coomassie blue staining is detected at 590 nm.
The results obtained from using MTT assay were further confirmed with the trypan blue dye exclusion assay. […] Levels of viability were measured using the trypan blue assay as described under Materials and Methods. Results are expressed as fold trypan blue stained cells per total cell protein over control untreated cells. Results shown are means±SD (n=6-12).

NT2 cells = assay: BrdU assay, NT2 cell proliferation; format: cell-based, human

SMILES: CC(C)CC[C@@H](O)[C@@H](C)[C@H]1CC[C@H]2[C@@H]3CC=C4C[C@@H](O)CC[C@]4(C)[C@H]3CC[C@]12C [SP222, 22R-hydroxycholesterol]
- radiolabeling of NT2 cell protein with 3H-22R-hydroxycholesterol [1]: decreased in the presence of increasing concentrations of unlabeled 22R-hydroxycholesterol
- binding to Aβ17-40 (Aβ17-40; CPBBA): binds
- 22R-hydroxycholesterol-binding site in Aβ (Aβ17-40; CPBBA with various Aβ synthetic peptides): amino acids 17-40 of Aβ
- induction of differentiation in PC12, MDA-MB-231 or U87 cells [2]: such an effect was not found
- protection against 0.1 μM Aβ, membrane potential luminescence (PC12 cells; 0.1 μM Aβ): protected
- protection against the two highest concentrations of Aβ, membrane potential luminescence (PC12 cells; 1.0 and 10.0 μM Aβ): failed to do so
- inhibition of binding of radiolabeled 22R-hydroxycholesterol to Aβ1-42 (Aβ1-42; 50 μM unlabeled): 50%
- inhibition of binding of radiolabeled 22R-hydroxycholesterol to Aβ1-42 (Aβ1-42; 200 μM unlabeled): 90%
- binding to Aβ1-42 (Aβ1-42; CPBBA, native conditions): binds
- rescue from Aβ1-42-induced cell death (rat PC12 cells): rescued
- rescue from Aβ25-35-induced cell death (rat PC12 cells): Neither 22R-hydroxycholesterol nor DHEA could rescue
- NT2 cell proliferation at 25 μM (NT2 cells; 25 μM): significantly inhibited
- NT2 cell proliferation at 50 μM (NT2 cells; 50 μM): significantly inhibited
